Holding throughout (assay): biochemical
Common to all, as to format: binding

In assay [1] the target is T1, ABL2 (Homo sapiens, UniProt P42684).
T1 construct: the DNA-tagged SH2 domain concentrations used in this study were <0.1 nM; made in house; host or cells: HEK293 (transient transfection; unpurified extract)
T1 sequence (P42684 173-263 limits assumed): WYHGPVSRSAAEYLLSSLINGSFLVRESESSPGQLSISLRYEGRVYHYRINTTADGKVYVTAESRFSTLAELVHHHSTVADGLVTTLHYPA
To be noted: for remaining activity at 10 µM: primary screen; for remaining activity at 10 µM / percent of DMSO vehicle control at 10 µM: read-out: percent of DMSO vehicle control.

The target in assay [2] is T2, CBLC (Homo sapiens, UniProt Q9ULV8).
T2 construct: the DNA-tagged SH2 domain concentrations used in this study were <0.1 nM; made in house; host or cells: HEK293 (transient transfection; unpurified extract)
T2 sequence (Q9ULV8 219-321 limits assumed): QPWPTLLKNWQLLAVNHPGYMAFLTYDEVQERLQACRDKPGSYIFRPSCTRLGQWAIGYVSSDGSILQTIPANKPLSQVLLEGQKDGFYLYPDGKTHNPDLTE
To be noted: for remaining activity at 10 µM: primary screen; for remaining activity at 10 µM / percent of DMSO vehicle control at 10 µM: read-out: percent of DMSO vehicle control.

Assay [3] deals with T3, GADS (Homo sapiens, UniProt O75791).
T3 construct: the DNA-tagged SH2 domain concentrations used in this study were <0.1 nM; made in house; host or cells: HEK293 (transient transfection; unpurified extract)
T3 sequence (O75791 58-149 limits assumed): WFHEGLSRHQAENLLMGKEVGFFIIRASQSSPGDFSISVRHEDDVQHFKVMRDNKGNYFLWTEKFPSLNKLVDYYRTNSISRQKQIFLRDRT
To be noted: for remaining activity at 10 µM: primary screen; for remaining activity at 10 µM / percent of DMSO vehicle control at 10 µM: read-out: percent of DMSO vehicle control.

Assay [4] has as its target T4, YES (Homo sapiens, UniProt P07947).
T4 construct: the DNA-tagged SH2 domain concentrations used in this study were <0.1 nM; made in house; host or cells: HEK293 (transient transfection; unpurified cell extract)
To be noted: for remaining activity at 10 µM: read-out: percent of DMSO vehicle control.

The target of assay [5] is T5, PTPN6(SH2dom.C-term.) (Homo sapiens, UniProt P29350).
T5 construct: SH2dom.C-term. denotes SH2 domain closest to C-terminus of protein; made in house; host or cells: HEK293 (transient transfection, unpurified extract)
T5 sequence (P29350 110-213 limits assumed): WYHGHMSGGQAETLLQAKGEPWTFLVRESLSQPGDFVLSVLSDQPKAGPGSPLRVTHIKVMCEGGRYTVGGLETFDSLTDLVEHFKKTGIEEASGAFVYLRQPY
To be noted: read-out: percent of DMSO vehicle control.

In assay [6] the target is T6, GRB14 (Homo sapiens, UniProt Q14449).
T6 construct: the DNA-tagged SH2 domain concentrations used in this study were <0.1 nM; made in house; host or cells: HEK293 (transient transfection; unpurified extract)
T6 sequence (Q14449 439-535 limits assumed): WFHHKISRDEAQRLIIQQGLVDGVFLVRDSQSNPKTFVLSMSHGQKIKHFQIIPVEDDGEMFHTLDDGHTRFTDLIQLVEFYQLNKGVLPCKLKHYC
To be noted: for remaining activity at 10 µM: read-out: percent of DMSO vehicle control.

The target in assay [7] is T7, STAT6 (Homo sapiens, UniProt P42226).
T7 construct: made in house; host or cells: HEK293 (transient transfection), unpurified extract
T7 sequence (P42226 1-847): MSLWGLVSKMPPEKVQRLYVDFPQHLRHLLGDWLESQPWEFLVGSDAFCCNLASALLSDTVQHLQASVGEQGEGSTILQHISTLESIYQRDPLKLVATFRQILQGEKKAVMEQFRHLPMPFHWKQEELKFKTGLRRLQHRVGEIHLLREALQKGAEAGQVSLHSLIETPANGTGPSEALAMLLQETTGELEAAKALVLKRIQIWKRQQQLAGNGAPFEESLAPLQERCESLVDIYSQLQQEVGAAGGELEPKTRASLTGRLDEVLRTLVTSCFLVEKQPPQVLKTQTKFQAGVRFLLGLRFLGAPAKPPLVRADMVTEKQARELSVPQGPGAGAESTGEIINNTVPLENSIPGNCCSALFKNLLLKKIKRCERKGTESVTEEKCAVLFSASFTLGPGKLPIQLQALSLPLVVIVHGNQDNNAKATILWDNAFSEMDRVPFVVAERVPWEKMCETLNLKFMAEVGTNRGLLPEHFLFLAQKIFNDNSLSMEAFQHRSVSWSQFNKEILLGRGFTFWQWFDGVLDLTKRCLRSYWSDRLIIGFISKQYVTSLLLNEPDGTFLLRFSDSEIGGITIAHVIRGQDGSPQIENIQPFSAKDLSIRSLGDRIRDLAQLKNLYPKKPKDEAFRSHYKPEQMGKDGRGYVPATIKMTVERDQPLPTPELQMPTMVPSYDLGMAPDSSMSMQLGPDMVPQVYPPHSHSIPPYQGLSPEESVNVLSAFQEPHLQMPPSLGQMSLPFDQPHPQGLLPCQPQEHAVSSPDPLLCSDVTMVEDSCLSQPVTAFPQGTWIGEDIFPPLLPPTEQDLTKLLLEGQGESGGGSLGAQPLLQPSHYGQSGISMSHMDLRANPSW
To be noted: for remaining activity at 10 µM: primary screen; for remaining activity at 10 µM / percent of DMSO vehicle control at 10 µM: read-out: percent of DMSO vehicle control.

Assay [8] addresses T8, TEC (Homo sapiens, UniProt P42680).
T8 construct: made in house; host or cells: HEK293 (transient transfection), unpurified extract
T8 sequence (P42680 1-631): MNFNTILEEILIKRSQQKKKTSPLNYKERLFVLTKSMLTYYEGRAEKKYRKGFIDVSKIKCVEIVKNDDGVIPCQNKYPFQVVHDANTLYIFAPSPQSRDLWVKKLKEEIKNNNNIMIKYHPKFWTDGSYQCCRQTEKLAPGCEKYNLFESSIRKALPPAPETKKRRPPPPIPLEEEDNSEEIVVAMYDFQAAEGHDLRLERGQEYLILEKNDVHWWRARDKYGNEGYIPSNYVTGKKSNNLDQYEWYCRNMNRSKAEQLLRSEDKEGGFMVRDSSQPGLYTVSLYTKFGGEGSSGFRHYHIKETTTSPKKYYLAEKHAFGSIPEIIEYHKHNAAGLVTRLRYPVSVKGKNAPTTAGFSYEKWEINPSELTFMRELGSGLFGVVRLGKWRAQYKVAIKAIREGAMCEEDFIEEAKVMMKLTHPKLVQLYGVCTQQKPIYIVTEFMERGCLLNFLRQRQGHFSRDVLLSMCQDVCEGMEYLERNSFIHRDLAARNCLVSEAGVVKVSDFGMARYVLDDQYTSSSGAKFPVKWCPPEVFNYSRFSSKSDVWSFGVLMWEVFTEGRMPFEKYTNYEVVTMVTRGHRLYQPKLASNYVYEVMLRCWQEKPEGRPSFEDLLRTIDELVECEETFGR
To be noted: for remaining activity at 10 µM: primary screen; for remaining activity at 10 µM / percent of DMSO vehicle control at 10 µM: read-out: percent of DMSO vehicle control.

Assay [9] addresses T9, SOCS1 (Homo sapiens, UniProt O15524).
T9 construct: made in house; host or cells: HEK293 (transient transfection), unpurified extract
T9 sequence (O15524 1-211): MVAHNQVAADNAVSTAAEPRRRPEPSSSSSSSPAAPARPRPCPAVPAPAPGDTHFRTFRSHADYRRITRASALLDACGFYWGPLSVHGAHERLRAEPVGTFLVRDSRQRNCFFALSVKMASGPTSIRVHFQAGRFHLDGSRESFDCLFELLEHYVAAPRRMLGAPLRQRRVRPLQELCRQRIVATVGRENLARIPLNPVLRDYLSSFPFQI
To be noted: for remaining activity at 10 µM: read-out: percent of DMSO vehicle control.

Where two headings read alike, the source gives them in different places. Non-standard residues stand in square brackets, D forms with d. Residues, ends and D or L forms follow the SMILES beside them. *: point of attachment. pY = N[C@@H](Cc1ccc(OP(=O)(O)O)cc1)C(=O)O; Caffeoyl = O=C(/C=C/c1ccc(O)c(O)c1)*

T4 sequence (P07947 158-255 limits assumed): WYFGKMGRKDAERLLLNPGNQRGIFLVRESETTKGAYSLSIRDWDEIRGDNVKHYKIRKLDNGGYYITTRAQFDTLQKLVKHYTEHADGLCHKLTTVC

As for `C/C(=C\C(=O)N[C@H](C(=O)N1CCC[C@H]1C(=O)N(c1ccccc1)c1ccc(I)cc1)C(C)(C)C)c1ccc(OP(=O)(O)O)cc1` [STAT6-IN-1], the remaining activity at 10 µM worked out at 98.1 ± 4.2% in [1]; 3.3 ± 0.1% in assay [2]; 9.6 ± 0.1% in [3]; 29.5% in assay [4] (primary screen, 10 μM); 45.8 ± 7.8% in [5] (primary screen, 10 μM); 24.5 ± 4% in assay [6] (primary screen, 10 μM). The remaining activity at 10 µM in assay [7] was 0%; in [8], 75.1 ± 3.7%; in [9] (primary screen, 10 μM) it was 98.5 ± 3.5%. The Kd came to 1800 ± 490 nM in assay [2] (dose-response, read-out: KD); 2400 nM in assay [3] (dose-response, read-out: KD); 9200 ± 380 nM in assay [4] (dose-response, read-out: KD); 3500 ± 420 nM in assay [6] (dose-response, read-out: KD); 0.68 nM in assay [7] (dose-response, read-out: KD).

In the case of `CC[C@H](C)[C@H](NC(=O)[C@H](CCC(=O)O)NC(=O)[C@H](CCC(=O)O)NC(=O)[C@H](Cc1ccc(OP(=O)(O)O)cc1)NC(=O)/C=C/c1ccc(O)c(O)c1)C(=O)N[C@@H](CCC(=O)O)C(=O)O` [Caffeic acid-pYEEIE] (Caffeoyl-[pY]EEIE-OH), the Kd in assay [1] was 1400 ± 360 nM; in assay [2], 37 ± 23 nM; in assay [4], 1 ± 0.47 nM; in assay [6], 1200 ± 920 nM; in assay [8], 39 ± 7.8 nM; in assay [9], 30 ± 6.5 nM. Besides, the percent of DMSO vehicle control at 10 µM in assay [1] stood at 0.7 ± 0.4%; in assay [2] it was 0.1%; in assay [3] it was 94.8%; in [7], 103 ± 16.9%; in assay [8], 0.1%. Besides, the remaining activity at 10 µM worked out at 0% in assay [4], 114 ± 11% in assay [5], 0% in assay [6] and 1.1 ± 0.1% in [9].

Regarding `CC(=O)N1CC[C@H]2CC[C@@H](C(=O)N[C@@H](CCC(N)=O)C(=O)NC(c3ccccc3)c3ccccc3)N2C(=O)[C@@H](NC(=O)c2cc3cc(C(F)(F)P(=O)(O)O)ccc3[nH]2)C1` [SI-109], the percent of DMSO vehicle control at 10 µM in assay [1] was found to be 122%; in [2], 106%; in assay [3], 276%; in [7], 44.5 ± 2.9%; in assay [8] it was 135%. Further, the remaining activity at 10 µM in assay [4] turned out to be 113%; in [5] it was 119%; in [6], 110%; in [9] it was 103%. Besides, the Kd in [7] is 1400 ± 0.15 nM.

For `O=C(CCl)Nc1cccc(CNC(=O)[C@H](Cc2ccc(OP(=O)(O)O)cc2)NC(=O)Cc2ccc(F)cc2)c1` [MN551], the remaining activity at 10 µM in assay [1] amounted to 94.6 ± 1.6%; in [2] it was 43 ± 3.8%; in assay [3] it was 42.9 ± 0.8%; in assay [4] (primary screen, 10 μM) it was 46.5 ± 2.1%; in assay [5] (primary screen, 10 μM) it was 147%; in assay [6] (primary screen, 10 μM), 62.1 ± 2.4%. Further, the remaining activity at 10 µM in assay [7] was found to be 37.2%; in assay [8] it was 120%; in [9] (primary screen, 10 μM), 38.1 ± 7.5%.

For orientation: Kd means the free concentration of one partner at which half of the binding sites on the other are occupied at equilibrium, for simple one-to-one binding.

Values taken from article PMC12951562, “SH2scan: Mapping SH2 Domain-Ligand Binding Selectivity for Inhibitors and Degraders” (Journal of Medicinal Chemistry, 2026).
